This note sets out measurements from US20230295234A1, “ANTIMICROBIAL PEPTIDOMIMETICS” (SPEXIS AG, priority 2020, published 2023).

Bridge positions count the residues as written; N and C are the ends. Square brackets hold non-standard residues; d marks the D form. Peptide text beside a SMILES is read from it. Gly(N-2-aminoethyl) = NCCNCC(=O)O; Hyp = O=C(O)[C@@H]1C[C@@H](O)CN1; Gly(N(CH2)3NH2) = NCCCNCC(=O)O; Pen = CC(C)(S)[C@H](N)C(=O)O; dDab = NCC[C@@H](N)C(=O)O; Dab = NCC[C@H](N)C(=O)O; Nlys = NCCCCNCC(=O)O

In data set [1] the test system is human red blood cells (hRBC). The experiment in a line: Hemolysis of human red blood cells. As to conditions: red cells of human, 1 h. The data set is classed as cell-based. A digest of the protocol:
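Percent hemolysis is OD540 of peptide-treated supernatant relative to water-lysed cells. Each peptide was tested at 200 μg/mL against 20% (v/v) washed human erythrocytes. Incubation was 1 h at 37 °C, 300 rpm.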

Data set [2] deals with Klebsiella pneumoniae SSI3010. The note with it: SSI3010. A digest of the protocol:
(§1)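 First, bacterial colonies are suspended in saline and adjusted to 0.5 McFarland. Next, the suspension is diluted into cation-adjusted Mueller-Hinton II broth (approx. 5×10^5 CFU/mL). Finally, it is added to two-fold serially diluted peptide, with polysorbate 80 at 0.002% final.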

The subject of data set [3] is Escherichia coli ATCC 25922. As to conditions: ATCC 25922. In a few lines: as §1
In data set [4] the test system is Escherichia coli MCR-1 Af 45. The note with it: MCR-1 Af 45. A digest of the protocol: as §1

Regarding `CC[C@H](C)[C@H](NC(=O)[C@@H]1C[C@@H](O)CN1C(=O)[C@@H](NC(=O)CN(CCN)C(=O)CNCCCN)C(C)C)C(=O)N[C@H](C(=O)N[C@@H](Cc1ccc(O)cc1)C(=O)N[C@@H]1C(=O)N[C@@H](CC(N)=O)C(=O)N[C@@H](CCCNC(=N)N)C(=O)N[C@@H](CCN)C(=O)N[C@@H]([C@@H](C)O)C(=O)N[C@H](CCN)C(=O)N[C@@H](CCCCN)C(=O)N[C@H](C(=O)N[C@@H](Cc2ccc(O)cc2)C(=O)N[C@@H](CCCNC(=N)N)C(=O)N[C@@H](Cc2ccc(O)cc2)C(=O)O)CSSC1(C)C)[C@@H](C)O` [Example 60, Norn-Ndab-Val-Hyp-Ile-Thr-Tyr-Pen-Asn-Arg-Dab-Thr-^DDab-Lys-Cys-Tyr-Arg-Tyr] (H-[Gly(N(CH2)3NH2)][Gly(N-2-aminoethyl)]V[Hyp]ITY[Pen]NR[Dab]T[dDab]KCYRY-OH; disulfide 8-15; N-terminus assumed), the “Hemolysis at 0.2 g/L” value in data set [1] turned out to be 0%. Moreover, the “Klebsiella pneumoniae SSI3010 MIC” value in data set [2] came to 0.25 µg/mL. In addition, the “Escherichia coli ATCC 25922 MIC” value in data set [3] was 0.25 µg/mL. Moreover, the “Escherichia coli MCR-1 Af 45 MIC” value in data set [4] was found to be 0.125 µg/mL.
Consider `CC[C@H](C)[C@H](NC(=O)[C@@H]1C[C@@H](O)CN1C(=O)[C@@H](NC(=O)CN(CCN)C(=O)CNCCCCN)C(C)C)C(=O)N[C@H](C(=O)N[C@@H](Cc1ccc(O)cc1)C(=O)N[C@@H]1C(=O)N[C@@H](CC(N)=O)C(=O)N[C@@H](CCCNC(=N)N)C(=O)N[C@@H](CCN)C(=O)N[C@@H]([C@@H](C)O)C(=O)N[C@H](CCN)C(=O)N[C@@H](CCCCN)C(=O)N[C@H](C(=O)N[C@@H](Cc2ccc(O)cc2)C(=O)N[C@@H](CCCNC(=N)N)C(=O)N[C@@H](Cc2ccc(O)cc2)C(=O)O)CSSC1(C)C)[C@@H](C)O` [Example 61, Nlys-Ndab-Val-Hyp-Ile-Thr-Tyr-Pen-Asn-Arg-Dab-Thr-^DDab-Lys-Cys-Tyr-Arg-Tyr] (H-[Nlys][Gly(N-2-aminoethyl)]V[Hyp]ITY[Pen]NR[Dab]T[dDab]KCYRY-OH; disulfide 8-15), for which, in data set [1], the “Hemolysis at 0.2 g/L” value came out at 0%. Further, in data set [2], the “Klebsiella pneumoniae SSI3010 MIC” value amounted to 0.125 µg/mL. In data set [3], the “Escherichia coli ATCC 25922 MIC” value was 0.25 µg/mL. In addition, the “Escherichia coli MCR-1 Af 45 MIC” value in data set [4] was 0.125 µg/mL.
For `CC[C@H](C)[C@H](NC(=O)CN(CCN)C(=O)[C@@H](NC(=O)CN(CCN)C(=O)[C@@H](N)CCCCN)C(C)C)C(=O)N[C@H](C(=O)N[C@@H](Cc1ccc(O)cc1)C(=O)N[C@@H]1C(=O)N[C@@H](CC(N)=O)C(=O)N[C@@H](CCCNC(=N)N)C(=O)N[C@@H](CCN)C(=O)N[C@@H]([C@@H](C)O)C(=O)N[C@H](CCN)C(=O)N[C@@H](CCCCN)C(=O)N[C@H](C(=O)N[C@@H](Cc2ccc(O)cc2)C(=O)N[C@@H](CCCNC(=N)N)C(=O)N[C@@H](Cc2ccc(O)cc2)C(=O)O)CSSC1(C)C)[C@@H](C)O` [Example 62, Lys-Ndab-Val-Ndab-Ile-Thr-Tyr-Pen-Asn-Arg-Dab-Thr-^DDab-Lys-Cys-Tyr-Arg-Tyr] (H-K[Gly(N-2-aminoethyl)]V[Gly(N-2-aminoethyl)]ITY[Pen]NR[Dab]T[dDab]KCYRY-OH; disulfide 8-15), in data set [1], the “Hemolysis at 0.2 g/L” value is listed as 0%. In addition, the “Klebsiella pneumoniae SSI3010 MIC” value in data set [2] came to 0.25 µg/mL. Besides, the “Escherichia coli ATCC 25922 MIC” value in data set [3] stood at 0.25 µg/mL. Moreover, the “Escherichia coli MCR-1 Af 45 MIC” value in data set [4] was 0.125 µg/mL.
Regarding `CC[C@H](C)[C@H](NC(=O)[C@@H]1C[C@@H](O)CN1C(=O)[C@@H](NC(=O)[C@@H]1C[C@@H](O)CN1C(=O)[C@H](CCCCN)NC(=N)N)C(C)C)C(=O)N[C@H](C(=O)N[C@@H](Cc1ccc(O)cc1)C(=O)N[C@@H]1C(=O)N[C@@H](CC(N)=O)C(=O)N[C@@H](CCCNC(=N)N)C(=O)N[C@@H](CCN)C(=O)N[C@@H]([C@@H](C)O)C(=O)N[C@H](CCN)C(=O)N[C@@H](CCCCN)C(=O)N[C@H](C(=O)N[C@@H](CCN)C(=O)N[C@@H](CCCNC(=N)N)C(=O)N[C@@H](Cc2ccc(O)cc2)C(=O)O)CSSC1(C)C)[C@@H](C)O` [Example 63, Gua-Lys-Hyp-Val-Hyp-Ile-Thr-Tyr-Pen-Asn-Arg-Dab-Thr-^DDab-Lys-Cys-Dab-Arg-Tyr] (HELM PEPTIDE1{[N=C(N)N[C@@H](CCCCN)C(=O)[*:2]].[Hyp].V.[Hyp].I.T.Y.[Pen].N.R.[Dab].T.[NCC[C@@H](N[*:1])C(=O)[*:2]].K.C.[Dab].R.Y}$PEPTIDE1,PEPTIDE1,8:R3-15:R3$$$V2.0), the “Hemolysis at 0.2 g/L” value in data set [1] is recorded as 0%. Moreover, the “Klebsiella pneumoniae SSI3010 MIC” value in data set [2] is 0.125 µg/mL. In data set [3], the “Escherichia coli ATCC 25922 MIC” value came to 0.0625 µg/mL. The “Escherichia coli MCR-1 Af 45 MIC” value in data set [4] turned out to be 0.0625 µg/mL.
As for `CCCC[C@H](NC(=O)[C@H](CCCNC(=N)N)NC(=O)[C@H](CCC(N)=O)NC(=O)[C@@H]1CSSC[C@H](NC(=O)[C@H](Cc2ccc(O)cc2)NC(=O)[C@@H](NC(=O)[C@@H](NC(=O)[C@@H]2CCCN2C(=O)[C@@H](NC(=O)[C@@H]2CCCN2C(=O)[C@H](CCCCN)NC(=O)[C@@H](N)CCCCN)C(C)C)[C@@H](C)CC)[C@@H](C)CC)C(=O)N[C@@H](CC(N)=O)C(=O)N[C@@H](CCCNC(=N)N)C(=O)N[C@@H](CCN)C(=O)N[C@@H]([C@@H](C)O)C(=O)N[C@H](CCN)C(=O)N[C@@H](CCN)C(=O)N1)C(=O)O` [Example 64] (HELM PEPTIDE1{K.K.P.V.P.I.I.Y.C.N.R.[Dab].T.[NCC[C@@H](N[*:1])C(=O)[*:2]].[Dab].C.Q.R.[Nle]}$PEPTIDE1,PEPTIDE1,9:R3-16:R3$$$V2.0), in data set [1], the “Hemolysis at 0.2 g/L” value is on record as 0%. In data set [2], the “Klebsiella pneumoniae SSI3010 MIC” value was found to be 0.25 µg/mL. Moreover, the “Escherichia coli ATCC 25922 MIC” value in data set [3] was determined as 0.0625 µg/mL. The “Escherichia coli MCR-1 Af 45 MIC” value in data set [4] was 0.125 µg/mL.
Taken in the same sequence, the figures for `CCCC[C@H](NC(=O)[C@H](CCCNC(=N)N)NC(=O)[C@H](CCCNC(=N)N)NC(=O)[C@@H]1CSSC[C@H](NC(=O)[C@H](Cc2ccc(O)cc2)NC(=O)[C@@H](NC(=O)[C@@H](NC(=O)[C@@H]2CCCN2C(=O)[C@@H](NC(=O)[C@@H]2CCCN2C(=O)[C@H](CCCCN)NC(=O)[C@@H](N)CCCCN)C(C)C)[C@@H](C)CC)[C@@H](C)CC)C(=O)N[C@@H](CC(N)=O)C(=O)N[C@@H](CCCNC(=N)N)C(=O)N[C@@H](CCN)C(=O)N[C@@H]([C@@H](C)O)C(=O)N[C@H](CCN)C(=O)N[C@@H](CCN)C(=O)N1)C(=O)O` [Example 65] (HELM PEPTIDE1{K.K.P.V.P.I.I.Y.C.N.R.[Dab].T.[NCC[C@@H](N[*:1])C(=O)[*:2]].[Dab].C.R.R.[Nle]}$PEPTIDE1,PEPTIDE1,9:R3-16:R3$$$V2.0) were 0%, 0.0625 µg/mL, ≤0.0625 µg/mL and 0.0625 µg/mL.
Taken in the same sequence, the figures for `CCCC[C@H](NC(=O)[C@H](CCCNC(=N)N)NC(=O)[C@H](CCN)NC(=O)[C@@H]1CSSC[C@H](NC(=O)[C@H](Cc2ccc(O)cc2)NC(=O)[C@@H](NC(=O)[C@@H](NC(=O)[C@@H]2CCCN2C(=O)[C@@H](NC(=O)[C@@H]2CCCN2C(=O)[C@H](CCCCN)NC(=O)[C@@H](N)CCCCN)C(C)C)[C@@H](C)CC)[C@@H](C)CC)C(=O)N[C@@H](CC(N)=O)C(=O)N[C@@H](CCCNC(=N)N)C(=O)N[C@@H](CCN)C(=O)N[C@@H]([C@@H](C)O)C(=O)N[C@H](CCN)C(=O)N[C@@H](CCCCN)C(=O)N1)C(=O)O` [Example 66] (HELM PEPTIDE1{K.K.P.V.P.I.I.Y.C.N.R.[Dab].T.[NCC[C@@H](N[*:1])C(=O)[*:2]].K.C.[Dab].R.[Nle]}$PEPTIDE1,PEPTIDE1,9:R3-16:R3$$$V2.0) were 0%, 0.125 µg/mL, 0.03125 µg/mL and 0.0625 µg/mL.
In the case of `CCCC[C@H](NC(=O)[C@H](CCCNC(=N)N)NC(=O)[C@H](CCC(N)=O)NC(=O)[C@@H]1CSSC[C@H](NC(=O)[C@H](Cc2ccc(O)cc2)NC(=O)[C@@H](NC(=O)[C@@H](NC(=O)[C@@H]2CCCN2C(=O)[C@@H](NC(=O)[C@@H]2CCCN2C(=O)[C@H](CCCCN)NC(=O)[C@@H](N)CCCCN)C(C)C)[C@@H](C)CC)[C@@H](C)CC)C(=O)N[C@@H](CC(N)=O)C(=O)N[C@@H](CCCNC(=N)N)C(=O)N[C@@H](CCN)C(=O)N[C@@H]([C@@H](C)O)C(=O)N[C@H](CCN)C(=O)N[C@@H](CCCCN)C(=O)N1)C(=O)O` [Example 67] (HELM PEPTIDE1{K.K.P.V.P.I.I.Y.C.N.R.[Dab].T.[NCC[C@@H](N[*:1])C(=O)[*:2]].K.C.Q.R.[Nle]}$PEPTIDE1,PEPTIDE1,9:R3-16:R3$$$V2.0), the “Hemolysis at 0.2 g/L” value in data set [1] came out at 0%. The “Klebsiella pneumoniae SSI3010 MIC” value in data set [2] turned out to be 0.25 µg/mL. Also, the “Escherichia coli ATCC 25922 MIC” value in data set [3] amounted to 0.125 µg/mL. Moreover, in data set [4], the “Escherichia coli MCR-1 Af 45 MIC” value turned out to be 0.25 µg/mL.
Turning to `CCCC[C@H](NC(=O)[C@H](CCCNC(=N)N)NC(=O)[C@H](CCCNC(=N)N)NC(=O)[C@@H]1CSSC[C@H](NC(=O)[C@H](Cc2ccc(O)cc2)NC(=O)[C@@H](NC(=O)[C@@H](NC(=O)[C@@H]2CCCN2C(=O)[C@@H](NC(=O)[C@@H]2CCCN2C(=O)[C@H](CCCCN)NC(=O)[C@@H](N)CCCCN)C(C)C)[C@@H](C)CC)[C@@H](C)CC)C(=O)N[C@@H](CC(N)=O)C(=O)N[C@@H](CCCNC(=N)N)C(=O)N[C@@H](CCN)C(=O)N[C@@H]([C@@H](C)O)C(=O)N[C@H](CCN)C(=O)N[C@@H](CCCCN)C(=O)N1)C(=O)O` [Example 68] (HELM PEPTIDE1{K.K.P.V.P.I.I.Y.C.N.R.[Dab].T.[NCC[C@@H](N[*:1])C(=O)[*:2]].K.C.R.R.[Nle]}$PEPTIDE1,PEPTIDE1,9:R3-16:R3$$$V2.0), the “Hemolysis at 0.2 g/L” value in data set [1] came out at 0%. For the same compound, the “Klebsiella pneumoniae SSI3010 MIC” value in data set [2] was ≤0.125 µg/mL. Also, the “Escherichia coli ATCC 25922 MIC” value in data set [3] was 0.03125 µg/mL. Besides, the “Escherichia coli MCR-1 Af 45 MIC” value in data set [4] worked out at 0.0625 µg/mL.
